The text below walks through data of a melting point compilation (Tetko et al.; mined from patent text by program, amines drawn as free bases though some values may be those of a salt).

The structures appear in SMILES notation.

Broadly, the melting point is the temperature of the solid-liquid transition. As for `CC(=O)c1cccc(-c2ccc(OC3SCC(O)C(O)C3O)cn2)c1` (stereo unspecified), the melting point lay in the range of 159 to 163 °C.

On to `CC(C)NC(=O)c1c(NC(=O)c2cc(C(F)(F)F)nn2-c2ncccc2Cl)ccc2ncccc12`, for which the melting point lay in the range of 182 to 183 °C.

`O=C(Nc1cccc(S(=O)(=O)NC2CC2)c1)c1cnn2c(C(F)F)cc(-c3ccc(C(F)(F)F)cc3)nc12` showed a melting point of 252 °C.

`COCC1CN(c2c(F)cc3c(=O)c(C(=O)O)cn([C@@H]4C[C@@H]4F)c3c2OC)CCN1` (stereo partly specified) displayed a melting point of 92 to 95 °C.

In the case of `CN(C)CC1Cc2ccccc2N(S(C)(=O)=O)C1` (stereo unspecified), the melting point was 69 to 70 °C.

For `COc1ccc2c(c1)C(=O)C(Cc1cccc(NS(=O)(=O)C(F)(F)F)c1)CO2` (stereo unspecified), the melting point was in the range of 114 to 116 °C.

`N#CN=CNc1nc(OCc2ccc(F)cc2)ncc1F` had a melting point of 148 to 149 °C.

Consider `O=C1C(CCC(O)c2ccc(F)cc2)C(c2ccc(-c3ccc(C4OC(CO)C(O)C(O)C4O)cc3)cc2O)N1c1ccccc1` (stereo unspecified), for which the melting point was 152 to 160 °C.

In the case of `CC(=O)NC1CC(C)(C)N(OC(C)=O)C(C)(C)C1`, the melting point was in the range of 129 to 132 °C.

For the compound `CCCNc1ccc2oc([N+](=O)[O-])c(-c3ccccc3)c2c1`, the melting point lay in the range of 158 to 160 °C.

For `NS(=O)(=O)c1ccc(Nc2ccccc2)c([N+](=O)[O-])c1`, the melting point is 155 °C.

For `COc1ccccc1-c1ccc(C)n1CC[C@H]1C[C@H](O)CC(=O)O1` (relative stereo), the melting point was in the range of 112 to 114 °C.

For `CCCn1cc(Cc2ccc(C(=O)NS(=O)(=O)c3ccccc3C)cc2OC)c2cc(CCC(C)C(=O)N(C)C)ccc21` (stereo unspecified), the melting point lay in the range of 90 to 93 °C.

Consider `O=C(O)[C@H]1C[C@@H](CP(=O)(O)O)c2ccccc2N1` (relative stereo), for which the melting point lay in the range of 171 to 173 °C.

In the case of `CCOC(=O)C1=CC2(CCC1S(=O)(=O)Nc1ccc(F)cc1Cl)OC1COCC1O2` (stereo unspecified), the melting point was in the range of 227 to 228 °C.

`C[C@]1(O)CCCC[C@H]1n1cnc(C(=O)N2CCNC[C@H]2Cc2ccccc2)c1-c1ccccc1`: the melting point came to 191 °C.

`COC(=O)c1oc2ccc(OC)cc2c1OCc1ccccc1` displayed a melting point of 81 to 84 °C.

Regarding `CS(=O)(=O)OCCOc1cc([N+](=O)[O-])ccc1N`, the melting point lay within 132 to 135 °C.

In turn, `CC(=O)N1CCCCc2ccc(C(=O)CCN(C)C)cc21` had a melting point of 68 to 70 °C.

Consider `COc1ccc(C(CC(C)(C)C(=O)O)c2ccc(Cl)cc2)cc1` (stereo unspecified), for which the melting point fell in the range of 139 to 142 °C.

Take `O=[N+]([O-])c1ccc(Sc2ncccn2)cc1`: the melting point lay within 103 to 104 °C.

Compound `CCCNC1=NS(=O)(=O)c2cc([N+](=O)[O-])ccc2N1` gave a melting point of 268 to 270 °C.

Consider `C=CCON(C1=NCCN1)c1c(F)cccc1Br`, for which the melting point came to 141 °C.

The compound `O=C1C(=O)c2ccccc2C2=C1SCC1(CCN(CC(O)Cc3ccccc3)CC1)O2` (stereo unspecified) gave a melting point of 82 to 84 °C.

Compound `CCNc1ccc2nc(Cl)c(S(N)(=O)=O)n2n1` showed a melting point of 218 to 220 °C.

For `N#Cc1cccc(C2=Nc3ccc(-c4cccc(F)c4)cc3NC(=O)C2)c1`, the melting point was in the range of 232 to 235 °C.

As for `CONC(=N)c1nn(-c2c(Cl)cc(C(F)(F)F)cc2Cl)c(N)c1S(C)=O` (stereo unspecified), the melting point was 169 to 170 °C.

On to `CC(=O)COc1c([N+](=O)[O-])ccc(F)c1C(C)=O`, for which the melting point was in the range of 64 to 65 °C.

In the case of `O=Cc1cc2cc3c(cc2nc1Cl)OCCO3`, the melting point is 222 to 224 °C.

Take `C=Cc1c(C#N)nn(-c2c(Cl)cc(C(F)(F)F)cc2Cl)c1Cl`: the melting point lay in the range of 69.8 to 70.4 °C.

`CC(CC(=O)c1ccccc1)C(=O)N[C@@H](CS)C(=O)O` (stereo partly specified) had a melting point of 78 to 105 °C.

On to `CN(C[C@H](O)c1cccc(OCC(=O)O)c1)c1cnc(-c2ccccc2)c(-c2ccccc2)n1`, for which the melting point fell in the range of 158 to 159 °C.

As to `CC(C)c1cn2ccccc2c1S(=O)(=O)c1ccc(OCCCN2CCC(c3ccccc3)CC2)cc1`, the melting point was 79 to 80 °C.

As for `CC1(C)CC(SCc2c(C(F)(F)F)nn(C(F)F)c2Cl)=NO1`, the melting point lay in the range of 41 to 42 °C.

The compound `Cc1onc(-c2ccc(-c3cscn3)cc2)c1-c1ccc(S(C)(=O)=O)c(F)c1` came in with a melting point of 130 °C.

The compound `CCc1c(C(=O)c2cc(C)cc(C)c2)n(C/C=C/CN=[N+]=[N-])c(=O)[nH]c1=O` yielded a melting point of 119 to 120 °C.

Compound `COc1ccc2cc(-c3ccc(Cl)c(-n4nc(C)nc4C)c3)c(=O)oc2c1` registered a melting point of 210 °C.

As to `CCOC(=O)C(=CNc1ccc(F)c(F)c1OCC(C)O)C(=O)OCC` (stereo unspecified), the melting point lay within 52 to 55 °C.

`CCOC(=O)c1cnc2nc3ccccc3n2c1O` registered a melting point of 309 to 310 °C.

In the case of `CC(C)c1oc(C=Cc2ccccc2)nc1CO`, the melting point fell in the range of 91 to 92 °C.

As to `CCc1nc2cc(CO)c(Cl)cc2n1-c1ccc(CCOC(=O)NS(=O)(=O)c2ccc(C)cc2)cc1`, the melting point came to 173 °C.

`O=C(O)C1Cc2c(c(Cl)cc3c(-c4cccc(F)c4)noc23)O1` (stereo unspecified) registered a melting point of 209 to 210 °C.

`CS(=O)(=O)Nc1cccc(S(F)(F)(F)(F)F)c1`: the melting point fell in the range of 80 to 82 °C.

The compound `CC(=O)OCC(=O)N(c1c(C)ccc2ccccc12)C1CCOC1=O` (stereo unspecified) displayed a melting point of 50 to 70 °C.

`Clc1ccc(CCC(Cn2ccnc2)OCc2ccc(Cl)c(Cl)c2)cc1` (stereo unspecified): the melting point was in the range of 87.5 to 89.5 °C.

As for `O=C1N(Cc2ccc(C(F)(F)F)o2)c2ccccc2C1(O)c1nc2c(cc1O)OCO2` (stereo unspecified), the melting point is over 250 °C.

Compound `Cc1cc(C#Cc2cnn3c(C(F)(F)F)cc(-c4ccc(C(F)(F)F)cc4)nc23)ccn1` displayed a melting point of 206 °C.

With `Cc1csc2ncc(CO)n12`, the melting point was in the range of 161 to 162 °C.

`Cc1cc(Nc2nc(-c3ccncc3)nc3ccccc23)[nH]n1` yielded a melting point of 286 to 289 °C.

`COC(=O)c1cncn1C1c2ccccc2CSC1(C)C` (stereo unspecified) returned a melting point of 108 to 109 °C.

As to `Cn1cc(C(=O)O)c(Nc2ccc(F)cc2F)cc1=O`, the melting point fell in the range of 253 to 255 °C.

Take `O=C(CCC1c2ccccc2-c2ccccc21)Nc1ccc(C(=O)O)c(O)c1`: the melting point fell in the range of 225 to 228 °C.

`Cc1ccc(S(=O)(=O)OC2=C(Br)C(=O)c3c(ccc4c3CCC(C)(C)O4)C2=O)cc1`: the melting point was 109 to 115 °C.

As for `CC1(C)SC2C(N3C(=O)c4ccccc4C3=O)C(=O)N2C1C(=O)OCc1ccc([N+](=O)[O-])cc1` (stereo unspecified), the melting point lay within 233 to 234 °C.

`CCN(C(=O)c1cc(C(C)(C)C)c(OC(=O)c2cc(C(C)(C)C)c(O)c(C(C)(C)C)c2)c(C(C)(C)C)c1)c1ccc(C)cc1` showed a melting point of 214 to 216 °C.

Compound `COC(=O)C(C)NC(=O)CCc1ccc(C(=O)CCl)cc1` (stereo unspecified) showed a melting point of 122 to 124 °C.

Compound `CS(=O)(=O)Nc1ccccc1NC1=CC=NC(Nc2ccc3c(c2)CNCCS3)N1Cl` (stereo unspecified) showed a melting point of 141 to 143 °C.

With `O=C1[C@H]2CCC[C@H]2N(C(=O)CCn2ccnc2)c2ccccc2N1Cc1ccccc1` (relative stereo), the melting point lay in the range of 150 to 152 °C.

On to `CCCOc1ccc(C(=O)CCC(=O)O)cc1`, for which the melting point lay within 116 to 117 °C.

`Nc1cnccc1-c1ccc(Cl)cc1` registered a melting point of 144 to 146 °C.

The compound `Cc1[nH]c(=S)n(Nc2ccccc2)c1-c1ccccc1` displayed a melting point of 224 to 226 °C.
